Assay results as given in patent US9700547B2, “Use of 6-hydroxy-2-pyridones and derivatives thereof for preparing a pharmaceutical composition that acts by inhibiting the human uridine phosphorylase enzyme” (UNIÃO BRASILEIRA DE EDUCAÇÃO E ASSISTÊNCIA, MANTENEDORA DA …, priority 2013, dated 2017).

How the values were obtained:
[1] = molecular target: T1, Human Phosphorylase Uridine 1 (hUP1) (Homo sapiens, UniProt Q16831); test: hUP1 enzymatic assay, inhibition at 1 μM (UV absorbance of uridine at 280 nm); assay type: biochemical; details: 1 μM compound, 37° C.
Protocol: (§1) The enzymatic activity of the hUP1 is performed through the enzymatic essay using one spectrophotometer UV/visible where the absorbance reduction of uridine in 280 nm, for 1 min and at 37° C. was monitored.
For determining which inhibitors would be selected for determining the inhibition constant (Ki), one cut point of 1 μM was stipulated, where only those compounds that would inhibit more than 60% of the initial activity of the enzyme would be selected for this type of analysis (Table 1). From all compounds tested, 7 molecules had its inhibition above 60% with the concentration of 1 μM (Compounds c1, c2, c3, c4, c6, c12, and c13). All essays described on this patent application were performed for these compounds and for benzil acyclo uridine (BAU), in order to perform a direct comparison of the results achieved with the better in vitro inhibitor of the hUP1 described (standard).

hUP1 = hUP1 (Homo sapiens, UniProt Q16831); test: isothermal titration microcalorimetry (ITC), free enzyme; assay type: binding
Protocol: (§2) For determining the thermodynamic parameters (enthalpy variation—ΔH, entropy variation—ΔS, and free energy variation of Gibbs—ΔG) were performed compounds binding essays to the enzyme in different conditions: free enzyme, complexed enzyme with the substrate Pi, and the complexed enzyme with the product ribose-1-phosphate (R1P). For such analyses, it was used isothermal titration microcalorimetry (ITC) where the equipment monitors the difference of transferred heat, between the reference cell and the sample cell, when bindings are formed or broken during the binding process. The data analysis achieved was performed through the model One Set of Sites and the determination of ΔG and the dissociation constant (KD) were through the equations (IV) and (V) below, respectively: ΔG=ΔH−TΔS (IV) KD=1/Ka (V)

[2] = molecular target: T1, Human Phosphorylase Uridine 1 (hUP1); test: Ki and inhibition type from substrate saturation curves, double-reciprocal analysis; assay type: biochemical; details: for Inhibiting type for phosphate: substrate Pi; for Inhibition type for uridine: substrate uridine
Protocol: as §1
For determining Ki for the selected inhibitors, we performed saturation curves where the concentration of one of the substrates is fixed next to the Km and the concentration of another, varied until the saturation in fixed-varying concentrations of each one of the inhibitors.
(I) v=VA/[Ka(1+I/Kii)+A(1+Kis)] (II) v=VA/[A(1+I/Kis)+Ka] (III)

hUP1-R1P = hUP1-R1P (Homo sapiens, UniProt Q16831); test: isothermal titration microcalorimetry (ITC), enzyme complexed with product ribose-1-phosphate; assay type: binding
Protocol: as §2

hUP1-Pi = hUP1-Pi (Homo sapiens, UniProt Q16831); test: isothermal titration microcalorimetry (ITC), enzyme complexed with substrate Pi; assay type: binding
Protocol: as §2

[3] = system: intestinal mucositis caused by 5-FU; test: intestinal mucositis model caused by 5-FU (weight, diarrhea, villus histology); assay type: in vivo, female Wistar mouse
Protocol: The compound c3 was tested in in vivo for evaluating its protection regarding intestinal mucositis caused by 5-FU. The mucositis model was developed in female Wistar mouse (180-200 g) and the animals were divided into 5 groups with 4 animals in each group: Group 1: Saline+Saline Group 2: Compound c3 (150 mg/kg)+saline Group 3: Saline+5-FU (50 mg/kg) Group 4: Compound c3 (50 mg/kg)+5-FU (50 mg/kg) Group 5: Compound c3 (150 mg/kg)+5-FU (50 mg/kg) The test compound was administrated via oral, 30 minutes before administrating the chemotherapeutic 5-FU that was administrated via intraperitoneal. This treatment was followed for 5 days with once a day administrations. In the 5th treatment day, the animals were euthanized using one inhalational anesthetic (isoflurane) and the initial portion of the intestine (corresponding to jejunum and ileus) was collected for myeloperoxidase analysis (MPO) and histological analysis of the tissue, as well blood collect for quantification analysis of the uridine in the plasma. The animals were also followed-up regarding weight loss and diarrhea.

T1 sequence (Q16831 whole entry): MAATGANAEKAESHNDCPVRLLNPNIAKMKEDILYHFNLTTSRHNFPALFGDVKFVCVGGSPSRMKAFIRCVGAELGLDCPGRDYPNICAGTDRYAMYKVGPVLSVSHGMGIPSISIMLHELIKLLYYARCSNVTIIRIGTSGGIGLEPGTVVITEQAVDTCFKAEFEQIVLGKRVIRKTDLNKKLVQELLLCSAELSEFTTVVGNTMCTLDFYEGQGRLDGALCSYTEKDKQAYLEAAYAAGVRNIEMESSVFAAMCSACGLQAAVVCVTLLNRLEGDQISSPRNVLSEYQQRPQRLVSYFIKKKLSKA
Sequence of hUP1 (Q16831 whole entry): as above
Sequence of hUP1-Pi (Q16831 whole entry): as above
Sequence of hUP1-R1P (Q16831 whole entry): as above

Row | Structure (SMILES) | Inhibition with 1 μM (%) [1] [%] | inhibition at 1 µM [1] [%] | Kd (hUP1) [µM] | ΔG° (hUP1) [kcal/mol] | ΔH° (hUP1) [kcal/mol] | −TΔS (kcal/mol/deg) (hUP1) | Inhibiting type for phosphate [2] | Inhibition type for uridine [2] | Kd (hUP1-R1P; hUP1-R1P 50 μM) [µM] | ΔG° (hUP1-R1P; hUP1-R1P 50 μM) [kcal/mol] | ΔH° (hUP1-R1P; hUP1-R1P 50 μM) [kcal/mol] | −TΔS (kcal/mol/deg) (hUP1-R1P; hUP1-R1P 50 μM) [kcal/mol] | Kd (hUP1-R1P; hUP1-R1P 150 μM) [µM] | ΔG° (hUP1-R1P; hUP1-R1P 150 μM) [kcal/mol] | ΔH° (hUP1-R1P; hUP1-R1P 150 μM) [kcal/mol] | −TΔS (kcal/mol/deg) (hUP1-R1P; hUP1-R1P 150 μM) [kcal/mol] | further results
1 | N#Cc1ccc(O)[nH]c1=O [c12] | 67 | > 60 | 2.9 ± 0.554 | -7.8 ± 1.5 | -9.6 ± 0.3 | 1.7 ± 0.3 | Not Competitive | Not competitive | 0.108 ± 0.018 | -9.8 ± 1.6 | -15 ± 0.1 | 5.7 ± 0.9 | 0.127 ± 0.048 | -9.7 ± 3.7 | -18 ± 0.5 | 8.5 ± 3.2 | –
2 | Cc1c(CN(C)C)c(O)[nH]c(=O)c1C#N [c1] | 81 | – | 4.2 ± 0.602 | -7.6 ± 1.1 | -6.7 ± 0.2 | 0.8 ± 0.1 | Uncompetitive | Competitive | 7.4 ± 0.381 | -7.2 ± 0.4 | -22 ± 0.4 | 14 ± 0.7 | 10 ± 1.32 | -7.0 ± 0.9 | -23 ± 0.1 | 16 ± 2.1 | Kd (hUP1-Pi): 0.312 ± 0.073 µM; ΔG° (hUP1-Pi): -9.1 ± 2.1 kcal/mol; ΔH° (hUP1-Pi): -12 ± 0.2 kcal/mol; −TΔS (kcal/mol/deg) (hUP1-Pi): 2.6 ± 0.6 kcal/mol/deg
3 | CCc1cc(O)[nH]c(=O)c1C#N [Compound c8] | – | 25 | – | – | – | – | – | – | – | – | – | – | – | – | – | – | –
4 | Cc1c(Cc2ccccc2)c(O)[nH]c(=O)c1C#N [Compound c11] | – | 43 | – | – | – | – | – | – | – | – | – | – | – | – | – | – | –
5 | N#Cc1c(-c2ccccc2)cc(O)[nH]c1=O [Compound c7] | – | 42 | – | – | – | – | – | – | – | – | – | – | – | – | – | – | –
6 | Cc1c(CN2CCCCC2)c(O)[nH]c(=O)c1C#N [Compound c5] | – | 49 | – | – | – | – | – | – | – | – | – | – | – | – | – | – | –
7 | CCCN(CCC)Cc1c(O)[nH]c(=O)c(C#N)c1C [Compound c10] | – | 20 | – | – | – | – | – | – | – | – | – | – | – | – | – | – | –
8 | Cc1c(CNC(CO)CO)c(O)[nH]c(=O)c1C#N [c6] | 82 | – | 5.3 ± 0.674 | -7.4 ± 1.0 | – | 16 ± 2.0 | Uncompetitive | Competitive | 7 ± 0.661 | -7.3 ± 0.7 | -18 ± 0.4 | 10 ± 1.0 | 7 ± 2.12 | -7.3 ± 2.2 | -10 ± 1.0 | 3.3 ± 1.0 | Kd (hUP1-Pi): 0.502 ± 0.083 µM; ΔG° (hUP1-Pi): -9.0 ± 1.5 kcal/mol; ΔH° (hUP1-Pi): -14 ± 0.2 kcal/mol; −TΔS (kcal/mol/deg) (hUP1-Pi): 5.0 ± 0.8 kcal/mol/deg
9 | Cc1c(CNCC(O)CO)c(O)[nH]c(=O)c1C#N (stereo not shown) [c4] | 78 | > 60 | 20 ± 2.63 | -6.7 ± 0.9 | -22 ± 2.2 | 15 ± 2.0 | Uncompetitive | Competitive | 4.6 ± 0.344 | -7.5 ± 0.5 | -22 ± 0.5 | 14 ± 1.0 | 9.4 ± 1.04 | -7.1 ± 0.8 | -18 ± 0.8 | 11 ± 1.2 | Kd (hUP1-Pi): 0.263 ± 0.026 µM; ΔG° (hUP1-Pi): -9.3 ± 0.9 kcal/mol; ΔH° (hUP1-Pi): -19 ± 0.1 kcal/mol; −TΔS (kcal/mol/deg) (hUP1-Pi): 10 ± 1.0 kcal/mol/deg
10 | Cc1cc(O)[nH]c(=O)c1C#N [c13] | 62 | – | 12 ± 1.82 | -6.9 ± 1.0 | -8.7 ± 0.7 | 1.7 ± 0.2 | Not competitive | Not competitive | 1.3 ± 0.197 | -8.1 ± 1.2 | -27 ± 0.7 | 19 ± 2.9 | 1.3 ± 0.435 | -8.0 ± 2.7 | -35 ± 2.1 | 27 ± 9.1 | –
11 | O=c1[nH]cc(F)c(=O)[nH]1 [Compound 5-FU, 5-fluorouracil, reference compound] | – | – | – | – | – | – | – | – | – | – | – | – | – | – | – | – | diarrhea ([3]; 5-FU 50 mg/kg intraperitoneal, once a day, all groups that received the chemotherapeutic): developed severe diarrhea; weight loss ([3]; 5-FU 50 mg/kg intraperitoneal, once a day, with or without the compound, day 1 vs day 6): had a weight loss and this was significant; intestinal villus (histological analysis) ([3]; group that received only 5-FU, 50 mg/kg intraperitoneal): villus totally damaged
12 | CCN(CC)Cc1c(O)[nH]c(=O)c(C#N)c1C [Compound c9] | – | 25 | – | – | – | – | – | – | – | – | – | – | – | – | – | – | –
13 | O=c1[nH]cc(CNCCO)c(=O)[nH]1 [Compound c14] | – | 2 | – | – | – | – | – | – | – | – | – | – | – | – | – | – | –
14 | Cc1c(CNCCO)c(O)[nH]c(=O)c1C#N [c2] | 80 | > 60 | 2 ± 0.221 | -8.0 ± 0.9 | -23 ± 0.5 | 14 ± 1.5 | Uncompetitive | Competitive | 2.3 ± 0.423 | -8.0 ± 1.5 | -17 ± 0.6 | 9.5 ± 1.7 | 3.8 ± 0.553 | -7.6 ± 1.1 | -30 ± 1.5 | 23 ± 3.3 | Kd (hUP1-Pi): 0.151 ± 0.034 µM; ΔG° (hUP1-Pi): -9.5 ± 2.1 kcal/mol; ΔH° (hUP1-Pi): -16 ± 0.2 kcal/mol; −TΔS (kcal/mol/deg) (hUP1-Pi): 6.4 ± 1.4 kcal/mol/deg
